According to patent US10131652B2, “Pyrimidinyloxy benzene derivatives as herbicides” (E. I. DU PONT DE NEMOURS AND COMPANY, priority 2014, dated 2018):
Read-outs that look alike come from different tables or passages of the source.

Tests used:
Experiment in all cases: Test D pre-/postemergence plant response
Type in all cases: in vivo
[1] = tested on: giant foxtail (Setaria faberii); details: Setaria faberi; for pest or weed control at 62 g/ha: 62 g ai/ha; for pest or weed control at 125 g/ha: 125 g ai/ha
Outline: (§1)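 Ratings were visual, 0 = no effect to 100 = complete control, taken against untreated controls after 13 to 15 days in a greenhouse. Chemicals, formulated in non-phytotoxic surfactant-containing solvent, went onto soil (loam/sand) at planting for preemergence, or onto 1- to 4-leaf plants (2–18 cm) for postemergence.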

[2] = tested on: lambsquarters (Chenopodium album); details: Chenopodium album; for pest or weed control at 31 g/ha: 31 g ai/ha; for pest or weed control at 62 g/ha: 62 g ai/ha; for pest or weed control at 125 g/ha: 125 g ai/ha
Outline: as §1

[3] = tested on: soybean (Glycine max); details: Glycine max; for plant injury at 31 g/ha: 31 g ai/ha; for plant injury at 62 g/ha: 62 g ai/ha; for plant injury at 125 g/ha: 125 g ai/ha
Outline: as §1

[4] = tested on: corn (Zea mays); details: Zea mays; for Corn plant response rating (crop injury, 0 = no effect, 100 = complete kill) at 62 g/ha: 62 g ai/ha
Outline: as §1

[5] = tested on: pigweed (Amaranthus retroflexus); details: Amaranthus retroflexus; for pest or weed control at 31 g/ha: 31 g ai/ha; for pest or weed control at 62 g/ha: 62 g ai/ha; for pest or weed control at 125 g/ha: 125 g ai/ha
Outline: as §1

[6] = tested on: barnyardgrass (Echinochloa crus-galli); details: Echinochloa crus-galli; for pest or weed control at 16 g/ha: 16 g ai/ha; for pest or weed control at 31 g/ha: 31 g ai/ha; for pest or weed control at 62 g/ha: 62 g ai/ha; for pest or weed control at 125 g/ha: 125 g ai/ha
Outline: as §1

[7] = tested on: blackgrass (Alopecurus myosuroides); details: Alopecurus myosuroides; for pest or weed control at 16 g/ha: 16 g ai/ha; for pest or weed control at 31 g/ha: 31 g ai/ha; for pest or weed control at 62 g/ha: 62 g ai/ha; for pest or weed control at 125 g/ha: 125 g ai/ha
Outline: as §1

[8] = post-emergence, Postemergence, scale 0 to 100, 0 no effect, 100 complete control, read-out: Plant response rating, Foxtail, Giant
[9] = post-emergence, Postemergence, scale 0 to 100, 0 no effect, 100 complete control, read-out: Plant response rating, Lambsquarters
[10] = pre-emergence, Preemergence, scale 0 to 100 (0 no effect, 100 complete control), read-out: Plant response rating, Lambsquarters
[11] = post-emergence, Postemergence, scale 0 to 100, 0 no effect, 100 complete control, read-out: Plant response rating, Soybean
[12] = pre-emergence, Preemergence, scale 0 to 100 (0 no effect, 100 complete control), read-out: Plant response rating, Soybean
[13] = post-emergence, Postemergence, scale 0 to 100, 0 no effect, 100 complete control, read-out: Plant response rating, Pigweed
[14] = pre-emergence, Preemergence, scale 0 to 100 (0 no effect, 100 complete control), read-out: Plant response rating, Pigweed
[15] = post-emergence, Postemergence, scale 0 to 100 (0 no effect, 100 complete control), read-out: Barnyardgrass plant response rating
[16] = post-emergence, Postemergence, scale 0 to 100, 0 no effect, 100 complete control, read-out: Plant response rating, Barnyardgrass
[17] = pre-emergence, Preemergence, scale 0 to 100 (0 no effect, 100 complete control), read-out: Plant response rating, Barnyardgrass
[18] = post-emergence, Postemergence, scale 0 to 100 (0 no effect, 100 complete control), read-out: Blackgrass plant response rating
[19] = post-emergence, Postemergence, scale 0 to 100, 0 no effect, 100 complete control, read-out: Plant response rating, Blackgrass
[20] = pre-emergence, Preemergence, scale 0 to 100 (0 no effect, 100 complete control), read-out: Plant response rating, Blackgrass

Compound: Fc1cccc(Oc2ncc(Br)cn2)c1-c1cc(C(F)F)no1 [Compound 145, 5-bromo-2-[2-[3-(difluoromethyl)-5-isoxazolyl]-3-fluorophenoxy]pyrimidine]
- pest or weed control at 62 g/ha [1, 8]: 20%
- pest or weed control at 125 g/ha [1, 8]: 20%
- pest or weed control at 125 g/ha ([1]; pre-emergence, Preemergence, read-out: Plant response rating (scale 0 to 100), Foxtail, Giant): 100%
- pest or weed control at 16 g/ha ([1]; pre-emergence, Preemergence, 16 g ai/ha, scale 0 to 100 (0 no effect, 100 complete control), read-out: Plant response rating, Foxtail, Giant): 85%
- pest or weed control at 31 g/ha ([1]; pre-emergence, Preemergence, 31 g ai/ha, scale 0 to 100 (0 no effect, 100 complete control), read-out: Plant response rating, Foxtail, Giant): 100%
- pest or weed control at 62 g/ha ([1]; pre-emergence, Preemergence, scale 0 to 100 (0 no effect, 100 complete control), read-out: Plant response rating, Foxtail, Giant): 100%
- pest or weed control at 31 g/ha ([2]; post-emergence, Postemergence, scale 0 to 100 (0 no effect, 100 complete control), read-out: Lambsquarters plant response rating): 85%
- pest or weed control at 62 g/ha [2, 9]: 85%
- pest or weed control at 125 g/ha [2, 9]: 95%
- pest or weed control at 125 g/ha ([2]; pre-emergence, Preemergence, read-out: Plant response rating (scale 0 to 100), Lambsquarters): 100%
- pest or weed control at 16 g/ha ([2]; pre-emergence, Preemergence, 16 g ai/ha, scale 0 to 100 (0 no effect, 100 complete control), read-out: Plant response rating, Lambsquarters): 100%
- pest or weed control at 31 g/ha [2, 10]: 100%
- pest or weed control at 62 g/ha [2, 10]: 100%
- plant injury at 31 g/ha ([3]; post-emergence, Postemergence, scale 0 to 100 (0 no effect, 100 complete control), read-out: Soybean plant response rating): 60%
- plant injury at 62 g/ha [3, 11]: 75%
- plant injury at 125 g/ha [3, 11]: 75%
- plant injury at 125 g/ha ([3]; pre-emergence, Preemergence, read-out: Plant response rating (scale 0 to 100), Soybean): 90%
- plant injury at 16 g/ha ([3]; pre-emergence, Preemergence, 16 g ai/ha, scale 0 to 100 (0 no effect, 100 complete control), read-out: Plant response rating, Soybean): 10%
- plant injury at 31 g/ha [3, 12]: 60%
- plant injury at 62 g/ha [3, 12]: 75%
- plant injury at 16 g/ha ([4]; post-emergence, Postemergence, 16 g ai/ha, scale 0 to 100 (0 no effect, 100 complete control), read-out: Corn plant response rating): 5%
- plant injury at 31 g/ha ([4]; post-emergence, Postemergence, 31 g ai/ha, scale 0 to 100 (0 no effect, 100 complete control), read-out: Corn plant response rating): 5%
- Corn plant response rating (crop injury, 0 = no effect, 100 = complete kill) at 62 g/ha ([4]; post-emergence, Postemergence, scale 0 to 100, 0 no effect, 100 complete control): 5%
- Corn plant response rating (crop injury, 0 = no effect, 100 = complete kill) at 125 g/ha ([4]; post-emergence, Postemergence, 125 g ai/ha, scale 0 to 100, 0 no effect, 100 complete control): 10%
- plant injury at 125 g/ha ([4]; pre-emergence, Preemergence, 125 g ai/ha, read-out: Plant response rating (scale 0 to 100), Corn): 45%
- Corn plant response rating (crop injury, 0 = no effect, 100 = complete kill) at 16 g/ha ([4]; pre-emergence, Preemergence, 16 g ai/ha, scale 0 to 100 (0 no effect, 100 complete control)): 0%
- Corn plant response rating (crop injury, 0 = no effect, 100 = complete kill) at 31 g/ha ([4]; pre-emergence, Preemergence, 31 g ai/ha, scale 0 to 100 (0 no effect, 100 complete control)): 5%
- Corn plant response rating (crop injury, 0 = no effect, 100 = complete kill) at 62 g/ha ([4]; pre-emergence, Preemergence, scale 0 to 100 (0 no effect, 100 complete control)): 10%
- pest or weed control at 31 g/ha ([5]; post-emergence, Postemergence, scale 0 to 100 (0 no effect, 100 complete control), read-out: Pigweed plant response rating): 95%
- pest or weed control at 62 g/ha [5, 13]: 98%
- pest or weed control at 125 g/ha [5, 13]: 98%
- pest or weed control at 125 g/ha ([5]; pre-emergence, Preemergence, read-out: Plant response rating (scale 0 to 100), Pigweed): 100%
- pest or weed control at 16 g/ha ([5]; pre-emergence, Preemergence, 16 g ai/ha, scale 0 to 100 (0 no effect, 100 complete control), read-out: Plant response rating, Pigweed): 100%
- pest or weed control at 31 g/ha [5, 14]: 100%
- pest or weed control at 62 g/ha [5, 14]: 100%
- pest or weed control at 16 g/ha [6, 15]: 5%
- pest or weed control at 31 g/ha [6, 15]: 5%
- pest or weed control at 62 g/ha [6, 16]: 10%
- pest or weed control at 125 g/ha [6, 16]: 30%
- pest or weed control at 125 g/ha ([6]; pre-emergence, Preemergence, read-out: Plant response rating (scale 0 to 100), Barnyardgrass): 100%
- pest or weed control at 16 g/ha [6, 17]: 65%
- pest or weed control at 31 g/ha [6, 17]: 85%
- pest or weed control at 62 g/ha [6, 17]: 85%
- pest or weed control at 16 g/ha [7, 18]: 15%
- pest or weed control at 31 g/ha [7, 18]: 20%
- pest or weed control at 62 g/ha [7, 19]: 25%
- pest or weed control at 125 g/ha [7, 19]: 80%
- pest or weed control at 125 g/ha ([7]; pre-emergence, Preemergence, read-out: Plant response rating (scale 0 to 100), Blackgrass): 95%
- pest or weed control at 16 g/ha [7, 20]: 15%
- pest or weed control at 31 g/ha [7, 20]: 90%
- pest or weed control at 62 g/ha [7, 20]: 95%
